Results taken from patent US9018194B2 (Nibon University, priority 2011, dated 2015).

Legend:
human VDR [1] = biological target: T1, human VDR (Homo sapiens, UniProt P11473); assay: VDR transcription induction activity, luciferase reporter assay (mouse osteopontin VDRE) in HEK293 cells transfected with human VDR; assay type: cell-based; parameters: expressed in transfected cells; host or cells: HEK293 cells; conditions: for efficacy of VDR transcription induction, % of that of the natural hormone / concentration at which the highest transcription activity was shown: HEK293 cells; for efficacy of VDR transcription induction, % of that of the natural hormone: Sppx3-tk-LUC reporter, relative to 1,25(OH)2D3; for concentration at which the highest transcription activity was shown: 10^-8 M was the lowest concentration used
T1 sequence (P11473 1-427): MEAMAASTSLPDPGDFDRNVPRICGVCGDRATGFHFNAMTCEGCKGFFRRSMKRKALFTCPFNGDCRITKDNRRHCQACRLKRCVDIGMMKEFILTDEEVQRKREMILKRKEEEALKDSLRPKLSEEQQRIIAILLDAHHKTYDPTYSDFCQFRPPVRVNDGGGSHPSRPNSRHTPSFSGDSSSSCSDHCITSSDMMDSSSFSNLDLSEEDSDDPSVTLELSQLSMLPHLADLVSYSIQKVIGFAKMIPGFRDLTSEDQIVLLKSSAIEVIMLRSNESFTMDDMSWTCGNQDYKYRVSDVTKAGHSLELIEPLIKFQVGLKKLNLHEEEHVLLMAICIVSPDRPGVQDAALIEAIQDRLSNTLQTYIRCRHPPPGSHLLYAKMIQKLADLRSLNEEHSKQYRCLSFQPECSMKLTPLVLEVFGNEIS
Method: Briefly, HEK cells were transfected with human VDR expression vector (pCMX-VDR) and expression vectors for VDR responsive luciferase (Sppx3-tk-LUC) and β-galactosidase by the calcium phosphate method. Eight hours later, compounds were added to the cells. After culturing for 16-24 hr, cells were harvested, and the activities of luciferase and β-galactosidase were measured. Luciferase activity values were corrected with β-galactosidase activity values.

human VDR [2] = biological target: T1, human VDR; conditions: for VDR binding ability, rank in words: among ADTK1 through ADTK4

Row | efficacy of VDR transcription induction, % of that of the natural hormone (human VDR [1]) [%] | concentration at which the highest transcription activity was shown (human VDR [1]) | VDR binding ability, rank in words (human VDR [2]) | type of activity at VDR (in words) (human VDR [1]; HEK293 luciferase assay, alone and in co-presence of 1,25(OH)2D3) | affinity for human VDR relative to the natural hormone 1,25(OH)2D3 (human VDR [2]; competition with [3H]-1,25(OH)2D3, 1,25(OH)2D3 = 100%) [%] | Molecule
1 | 72 | around 10^−7 M | lowest VDR binding ability | – | – | C=C1[C@H](O)CC(=C/C=C2\CCC[C@]3(C)[C@@H]([C@H](C)CC#C[C@H](O)CC45CC6CC(CC(C6)C4)C5)CC[C@@H]23)C[C@H]1O [ADTK3, (25R)-26-(1-Adamantyl)-1α,25-dihydroxy-2-methylene-23,23,24,24-tetradehydro-19,27-dinorvitamin D3]
2 | 54 | around 10^−7 M | – | – | – | C=C1[C@H](O)CC(=C/C=C2\CCC[C@]3(C)[C@@H]([C@H](C)CC#C[C@@H](O)CC45CC6CC(CC(C6)C4)C5)CC[C@@H]23)C[C@H]1O [ADTK4, (25S)-26-(1-Adamantyl)-1α,25-dihydroxy-2-methylene-23,23,24,24-tetradehydro-19,27-dinorvitamin D3]
3 | 66 | 10^−8 M | highest VDR binding activity | partial agonist | 67 | (25R)-25-(1-Adamantyl)-1α,25-dihydroxy-2-methylene-23,23,24,24-tetradehydro-19,26,27-trinorvitamin D3 [ADTK2]
4 | 40 | around 10^−7 M | – | – | – | (25S)-25-(1-Adamantyl)-1α,25-dihydroxy-2-methylene-23,23,24,24-tetradehydro-19,26,27-trinorvitamin D3 [ADTK1]
